Experiments:
Myzus persicae = Myzus persicae (Green peach aphid) sunflower leaf disc spray test; format: in vivo; conditions: application rate 200 ppm, sprayed sunflower leaf discs, aphid population of mixed ages, mortality 6 DAT
Method: Myzus persicae (Green peach aphid):
Sunflower leaf discs were placed on agar in a 24-well microtiter plate and sprayed with test solutions at an application rate of 200 ppm. After drying, the leaf discs were infested with an aphid population of mixed ages. After an incubation period of 6 DAT, samples were checked for mortality. The following compound gave at least 80% control of Myzus persicae: A3.

Row | SMILES | control of Myzus persicae (Myzus persicae) | melting point [°C]
1 | COc1c(NC(=O)c2ccccc2)cccc1C(=O)Nc1c(Cl)cc(C(F)(c2ccc(Cl)cc2)C(F)(F)F)cc1Cl (centres unmarked) [A3] | at least 80% | 
2 | O=C(Nc1c(Cl)cc(C(F)(c2ccsc2)C(F)(F)F)cc1Cl)c1cccc(NC(=O)c2c(F)cc(F)cc2F)c1F (centres unmarked) [A5, N-{3-[2,6-Dichloro-4-(2,2,2-trifluoro-1-fluoro-1-thiophen-3-ylethyl)-phenylcarbamoyl]-2-fluorophenyl}-2,4,6-trifluorobenzamide] |  | 197 to 199

— patent publication US20120309812A1 (SYNGENTA CROP PROTECTION LLC, priority 2010, published 2012)
